Consider four molecules from publication PMC11795524, “Melanin-Binding-Based Discovery of Topically Instilled Carbonic Anhydrase Inhibitors for Targeted Delivery and Prolonged Action in the Eye” (Molecular Pharmaceutics, 2025).

A value given as a limit tells only on which side of the number the result lay.

By Kd is commonly meant a measure of binding affinity in units of concentration.

The nature of data set [1]: In vitro melanin binding by microscale thermophoresis / initial fluorescence (Monolith NT.115 pico). The note with it: for Kd: melanin nanoparticles 0.5 mg/mL, IF or MST mode, 68% confidence, read-out: Kd ± confidence (melanin binding); for Melanin binding classification: class by Kd. From the text:
Melanin binding of the CAI-II compounds was studied with a Monolith NT.115 pico (NanoTemper Technologies GmbH, Munich, Germany) device using the method of […] et al. […] Otherwise, normalized fluorescence signals and the ratio of relative fluorescence after heating (MST mode) were used. The MST software was used in expert mode to allow heating for 30 s. […] As ligand autofluorescence may interfere with the assay, their autofluorescence values were pretested with the detector used in experiment (nanoblue or pico-red). Fluorescence of the ligand should be below 20% of melanin fluorescence. Sample aggregation and adsorption to the capillaries were used also as exclusion criteria.
In general terms: Microscale thermophoresis detects binding through changes in fluorescence in a small temperature gradient.

Data set [2] concerns pigmented rabbits. The arrangement: method as in PMID 1263134, PMID 955835. To be noted: topical eye drops; cited from earlier work.
In data set [3] the test system is albino rabbits. The arrangement: method as in PMID 1263134, PMID 955835. The note with it: topical eye drops; cited from earlier work.
The conditions of data set [4]: topical, rabbits; cited from earlier work.
Data set [5] concerns albino rabbits (New Zealand White). The data set is described as follows: IOP study in albino rabbits after single eye drop. The data set is classed as in vivo, rabbit. On the procedure:
(§1) Five 3–5 months old albino (New Zealand White, all females) and five 3–6 months old pigmented rabbits (Chinchilla Bastard, 1 male and 4 females) were purchased from Charles River Laboratories, UK and Germany, respectively. Prior to the experiments, the rabbits were habituated to handling, and the baseline values of IOP were measured. During the experiments, rabbits weighed 2.4–4.0 kg.
First, stock solutions of CAIs (250 mg/mL) in dimethyl sulfoxide (Sigma-Aldrich, Germany) were prepared. These stock solutions were diluted with PBS (pH 7.4) to obtain 1 mg/mL (0.1%) or 10 mg/mL (1%) solutions. Water-solubility of the compounds was enhanced with 2-hydroxypropyl-β-cyclodextrin (Sigma-Aldrich, Germany) (Table 1).
(§2) The CAI solutions were tested in albino rabbits (eye drops of 0.1, and 0.5 or 1.0%) and in pigmented rabbits (0.5 or 1.0%). The novel CAI concentrations in solutions were determined based on the drug solubility with the aim to load the highest possible drug concentration to the single eye drop.
(§3) The IOP levels in the rabbits were measured with a tonometer (Tonometer Pro, Icare Finland Ltd.). After baseline IOP measurements, a single eye drop (25 μL) was applied to the left eye, whereas the right eye was not treated. After eye drop instillation, the eyelids were kept open manually for 1 min. The IOP was measured from both eyes of the rabbits at 0.5, 1, 2, 3, 4, 5, 6, 7, and 8 h after eye drop instillation. In the case of the pigmented rabbits, the measurements were continued until 10 h postinstillation, and further until the IOP had returned to the normal baseline.
(§4) The CAIs were tested in the same rabbits to minimize interindividual data variation. Washout periods of at least 3 days were used between instillation of different compounds. The experiments started always at 8 a.m. to eliminate bias due to diurnal IOP fluctuation. At each time point, the pressure was measured three times with the same eye, and the average values were calculated and used in data analysis.

Data set [6] relates to pigmented rabbits (Chinchilla Bastard). Description: IOP study in pigmented rabbits after single eye drop. The data set is classed as in vivo, rabbit. To be noted: Chinchilla Bastard rabbits with normal (low) ocular pressure, before triamcinolone. As for the experimental part: as §1
First, stock solutions of CAIs (250 mg/mL) in dimethyl sulfoxide (Sigma-Aldrich, Germany) were prepared. These stock solutions were diluted with PBS (pH 7.4) to obtain 1 mg/mL (0.1%) or 10 mg/mL (1%) solutions.
as §2
Baseline IOP of pigmented rabbits was raised with two intravitreal triamcinolone acetonide injections (Triesence 40 mg/mL, Novartis Finland Ltd.) with 1 week interval to each eye. This method[25],[26] may induce ocular hypertension even up to 60 days in rabbits.[25]
The rabbits were anesthetized with 0.4 mg/kg, s.c. medetomidine (Domitor vet 1 mg/mL, Orion Pharma, Espoo, Finland) and 20 mg/kg s.c. ketamine (Ketaminol vet 50 mg/mL, Pfizer Oy Animal Health, Espoo, Finland). Mydriasis was induced with topical tropicamide eyedrops (Oftan Tropicamid 5 mg/mL, Santen Pharmaceutical Co., Ltd., Tampere, Finland) and the ocular surface was anesthetized with oxybuprocaine eye drop (Oftan Obucain 4 mg/mL, Santen Pharmaceutical Co., Ltd., Tampere, Finland). Thereafter, intravitreal injection of triamcinolone acetonide (100 μL) was given with a 31G needle and syringe. After injection, the eyes were moisturized with carbomer gel (Viscotears 2 mg/g, Dr. Gerhard Mann chem.-pharm. Fabrik GmbH, Berlin, Germany) and the anesthesia was antagonized with 1 mg/kg atipamezole s.c. (Antisedan vet 5 mg/mL, Orion Pharma, Espoo, Finland).
After the second injection, IOP was allowed to settle for 10 days before the experiments were performed. […] Induction of ocular hypertension is presented in Appendix Figure 3. The IOP-lowering effects of the molecules were investigated sequentially, each test initiating once baseline IOP levels was attained.
as §3, §4

Data set [7] concerns albino rabbits. Further details: method as in PMID 31515057, PMID 34274401. To be noted: cited from earlier work.
Data set [8] concerns albino rats. Further details: method as in PMID 25481859. The note with it: cited from earlier work.
Data set [9] relates to pigmented rabbits. The arrangement: method as in PMID 37130851. The note with it: intracameral injections; cited from earlier work.

Take `CN1[C@@H]2CC[C@H]1C[C@@H](OC(=O)C(CO)c1ccccc1)C2` (stereo partly shown) [Atropine]: in data set [1], the Kd was 758 ± 848 µM. The “duration of mydriatic effect” value in data set [2] is more than 96 h; in data set [3] it was 43.5 h.

With `CCN[C@H]1CN(CCCOC)S(=O)(=O)c2sc(S(N)(=O)=O)cc21` [Brinzolamide], in data set [4], the absolute ocular bioavailability is reported as 0.10%.

For `CCN[C@H]1C[C@H](C)S(=O)(=O)c2sc(S(N)(=O)=O)cc21` [Dorzolamide, reference compound], the Melanin binding classification entry in data set [1] was “intermediate (intermediate (65–650 μM))”. Moreover, in [5] (albino rabbits, single eye drop (0.5–1% CAI, 2% dorzolamide)), the “duration of IOP decrease” value was less than 8 h. For the same molecule, the “AUC0-last ± SD in albino rabbits (IOP decrease vs time)” value in data set [5] (single 25 μL eye drop, CAI 0.5 or 1.0%, dorzolamide 2%, n = 5) is 15.55 ± 10.64 mmHg x h. The “IOP reduction in normotensive pigmented rabbits” value in [6] is given as “no IOP reduction”. For the same molecule, the “duration of IOP-responses” value in [7] is on record as approximately 6 h; in [8], approximately 4 h.

As for `Brc1c(NC2=NCCN2)ccc2nccnc12` [Brimonidine, reference compound], in data set [1], the Melanin binding classification result is given as “high (high (<65 μM))” and the Kd was found to be 25 µM. The “duration of IOP decrease” value in [9] is reported as 7 days.
